The record followed here is PMC6874057, “Synthesis of Chalcone Derivatives: Inducing Apoptosis of HepG2 Cells via Regulating Reactive Oxygen Species and Mitochondrial Pathway” (Frontiers in Pharmacology, 2019).

One test concerns HL-60. Nature of the test: MTT cell viability assay, HL-60. The test is classed as cell-based, human. The following applies: mean ± SE. On the procedure: (§1) HeLa, A549, HepG2, HL-60, and WI-38 cell lines were incubated in DMEM solution containing 10% FBS for 48 h. The incubated tumor cells were seeded into 96-well plates (5 × 10^3 cells/well) to make them attach for 12 h. Afterwards, the cells were processed with the various concentrations of the synthetic compounds and 5-FU for 48 h. After removing the cell culture supernatant, 10 µl MTT (5 mg/ml) solution was dripped into the cells to generate a formazan product, which were dissolved by dimethyl sulfoxide (DMSO) 4 h later. Multifunction microplate reader (Bio-Rad Laboratories, Shanghai, China) was adopted to measure the absorbance at the wave length of 490 nm. The IC50 (the lowest drug concentration causing 50% of the tumor cells inhibition) was then calculated using GraphPad Prism Software (version 5.02) and used to indicate the cytotoxic effect of the target compounds on the selected tumor cells.

The test system of a further test is A549. Nature of the test: MTT cell viability assay, A549. The following applies: mean ± SE. The test is classed as cell-based, human. On the procedure: as §1
Another test concerns WI-38. Nature of the test: MTT cell viability assay, normal cell line WI-38. The following applies: normal cells, mean ± SE. The test is classed as cell-based, human. On the procedure: as §1
In the next test the test system is Hela. As to the kind of experiment: MTT cell viability assay, Hela. It counts as cell-based, human. The following applies: 48 h, mean ± SE. As to the method: as §1
A general note: Tetrazolium dyes change colour on reduction, which living cells bring about.

A further test has as its system HepG2. Nature of the test: MTT cell viability assay, HepG2. To be noted: mean ± SE. The test is classed as cell-based, human. On the procedure: as §1
Test [1] concerns adherent tumor cell lines (HepG2, A549 and Hela). Nature of the test: MTT assay, summary over adherent tumor cell lines. The test is classed as cell-based. To be noted: Homo sapiens; span of IC50 over compounds a11-a14 and adherent tumor cell lines; read-out: IC50 range over cell lines. On the procedure: as §1
In test [2] the test system is mitochondrial membrane potential in HepG2 cells. As to the kind of experiment: Mitochondrial membrane potential by JC-1 probe. The test is classed as cell-based, human. The following applies: CCCP for 20 min, without a14, positive control. As to the method: JC-1 probe was used to detect changes in MMP. Firstly, HepG2 cells (3 × 10^5 cells/well) were seeded into a six-well plate overnight for adherence, and then treated with various concentrations of a14 for 48 h. Next, the cells were treated with JC-1 (2.5 µg/ml) at 37°C for 10 min in the dark and rinsed three times with PBS. Then, the six-well plate was placed under the fluorescence microscope (excitation 480/30× nm, emission 515 nm) to observe the fluorescence color and intensity of JC-1 in the cells. In addition, HepG2 cells (3 × 10^5 cells/well) were inoculated on another six-well plate overnight to allow adherence, and then treated with a14 (50 µM) for 0, 12, 24, 36, and 48 h, adding CCCP (without a14) for 20 min to completely lose the mitochondrial membrane potential. Cells were then incubated with JC-1 (2.5 µg/ml) at 37°C in the dark for 10 min and rinsed with PBS for three times. Fluorescence intensity of residual JC-1 in cells was measured by Beckman Coulter flow cytometer (FITC, 525/40BP). The data obtained was analyzed by CytExpert 2.0 software imbedded in the flow cytometry.

Broadly, the IC50 is the concentration that inhibits the measured activity by half. `Cc1ccccc1/C=C/C(=O)c1ccc(O)c(C(N)=O)c1` [a6]: the IC50 amounted to 213 ± 2.98 µM in the test with HL-60 (Homo sapiens, HL-60, 48 h); 51.3 ± 2.11 µM with A549 (Homo sapiens, A549, 48 h); 109 ± 1.49 µM in the test with WI-38 (Homo sapiens, WI-38, 48 h); 74.8 ± 2.33 µM in the test on Hela (Homo sapiens, HeLa); 75.4 ± 3.27 µM in the test on HepG2 (Homo sapiens, HepG2, 48 h).
`COc1ccc(/C=C/C(=O)c2ccc(O)c(C(N)=O)c2)c(OC)c1` [a12]: the 50% inhibitory concentration (IC50) in the test on HL-60 (Homo sapiens, HL-60, 48 h) was 160 ± 3.59 µM; in the test on A549 (Homo sapiens, A549, 48 h) it was 41.2 ± 2.15 µM; in the test on WI-38 (Homo sapiens, WI-38, 48 h), 123 ± 2.45 µM; in the test with Hela (Homo sapiens, HeLa) it was 35.3 ± 2.13 µM; in the test on HepG2 (Homo sapiens, HepG2, 48 h), 54.37 ± 0.52 µM; in test [1], 23.3 to 54.4 µM.
In the case of `NC(=O)c1cc(C(=O)/C=C/c2ccccc2)ccc1O` [a5], the IC50 came to 108 ± 3.5 µM with HL-60 (Homo sapiens, HL-60, 48 h); 57.2 ± 1.53 µM with A549 (Homo sapiens, A549, 48 h); 127 ± 6.6 µM with WI-38 (Homo sapiens, WI-38, 48 h); 82.2 ± 4.8 µM with Hela (Homo sapiens, HeLa); 68.1 ± 5.51 µM with HepG2 (Homo sapiens, HepG2, 48 h).
The matching figures for `COc1cccc(/C=C/C(=O)c2ccc(O)c(C(N)=O)c2)c1` [a10]: 131 ± 4.64 µM, 45.6 ± 1.05 µM, 93.3 ± 3.13 µM, 54.4 ± 1.11 µM and 70.8 ± 4.03 µM.
With `COc1ccc(/C=C/C(=O)c2ccc(O)c(C(N)=O)c2)cc1` [a11], the IC50 is 245 ± 5.54 µM with HL-60 (Homo sapiens, HL-60, 48 h); 35.8 ± 1.02 µM in the test on A549 (Homo sapiens, A549, 48 h); 89.5 ± 6.61 µM in the test on WI-38 (Homo sapiens, WI-38, 48 h); 48.2 ± 0.56 µM in the test with Hela (Homo sapiens, HeLa); 44.7 ± 1.56 µM in the test on HepG2 (Homo sapiens, HepG2, 48 h); 23.3 to 54.4 µM in test [1].
Regarding `COc1ccccc1/C=C/C(=O)c1ccc(O)c(C(N)=O)c1` [a9], the IC50 in the test on HL-60 (Homo sapiens, HL-60, 48 h) amounted to 210 ± 3.03 µM; in the test with A549 (Homo sapiens, A549, 48 h), 57.6 ± 1.42 µM; in the test on WI-38 (Homo sapiens, WI-38, 48 h), 98.5 ± 4.91 µM; in the test with Hela (Homo sapiens, HeLa) it was 65.1 ± 1.34 µM; in the test on HepG2 (Homo sapiens, HepG2, 48 h), 80.3 ± 1.87 µM.
On to `NC(=O)c1cc(C(=O)/C=C/c2ccc(Br)cc2)ccc1O` [a4], for which the IC50 in the test on HL-60 (Homo sapiens, HL-60, 48 h) amounted to 110 ± 2.04 µM; in the test on A549 (Homo sapiens, A549, 48 h), 48.2 ± 2.25 µM; with WI-38 (Homo sapiens, WI-38, 48 h), 100 ± 11.5 µM; with Hela (Homo sapiens, HeLa), 65.9 ± 7.8 µM; in the test with HepG2 (Homo sapiens, HepG2, 48 h) it was 46.41 ± 0.05 µM.
As to `Cc1cccc(/C=C/C(=O)c2ccc(O)c(C(N)=O)c2)c1` [a7], the IC50 with HL-60 (Homo sapiens, HL-60, 48 h) stood at 111 ± 1.57 µM; in the test on A549 (Homo sapiens, A549, 48 h), 40.7 ± 3.68 µM; in the test with WI-38 (Homo sapiens, WI-38, 48 h), 81.7 ± 1.13 µM; with Hela (Homo sapiens, HeLa) it was 40.7 ± 1.33 µM; in the test on HepG2 (Homo sapiens, HepG2, 48 h) it was 55.6 ± 3.23 µM.
The matching figures for `NC(=O)c1cc(C(=O)/C=C/c2ccc(F)cc2)ccc1O` [a1]: 131 ± 5.38 µM, 107 ± 2.14 µM, 229 ± 7.38 µM, 125 ± 6.92 µM and 135 ± 9.79 µM.
As for `NC(=O)c1cc(C(=O)/C=C/c2cccc(Cl)c2)ccc1O` [a2], the IC50 amounted to 135 ± 2.45 µM in the test with HL-60 (Homo sapiens, HL-60, 48 h); 82.5 ± 3.61 µM with A549 (Homo sapiens, A549, 48 h); 122 ± 2.33 µM in the test with WI-38 (Homo sapiens, WI-38, 48 h); 98.9 ± 2.9 µM with Hela (Homo sapiens, HeLa); 77 ± 1.34 µM with HepG2 (Homo sapiens, HepG2, 48 h).
`NC(=O)c1cc(C(=O)/C=C/c2cccc(Br)c2)ccc1O` [a3]: the IC50 came to 141 ± 5.19 µM in the test on HL-60 (Homo sapiens, HL-60, 48 h); 59.6 ± 5.23 µM in the test with A549 (Homo sapiens, A549, 48 h); 126.2 ± 0.46 µM in the test with WI-38 (Homo sapiens, WI-38, 48 h); 77.6 ± 4.74 µM in the test on Hela (Homo sapiens, HeLa); 71.2 ± 4.63 µM in the test on HepG2 (Homo sapiens, HepG2, 48 h).
On to “carbonyl cyanide m-chlorophenyl hydrazine [CCCP, reference compound]”, for which, in test [2], the “JC-1 (FITC), right of the gate line (green fluorescence)” value turned out to be 99.98%.
As to `Cc1ccc(/C=C/C(=O)c2ccc(O)c(C(N)=O)c2)cc1` [a8], the IC50 in the test on HL-60 (Homo sapiens, HL-60, 48 h) is 301 ± 3.53 µM; with A549 (Homo sapiens, A549, 48 h), 65 ± 2.35 µM; with WI-38 (Homo sapiens, WI-38, 48 h), 147 ± 13.2 µM; in the test with Hela (Homo sapiens, HeLa), 53.6 ± 0.67 µM; in the test with HepG2 (Homo sapiens, HepG2, 48 h) it was 57.4 ± 3.07 µM.
In the case of `O=c1[nH]cc(F)c(=O)[nH]1` [5-FU, reference compound], the IC50 with HL-60 (48 h) worked out at 165 ± 4.74 µM; in the test with A549 (48 h), 53.7 ± 1.16 µM; in the test with WI-38 (48 h), 62.8 ± 2.03 µM; in the test with Hela, 35.2 ± 1.39 µM; in the test on HepG2 (48 h), 42.9 ± 2.88 µM.
`COc1ccc(/C=C/C(=O)c2ccc(O)c(C(N)=O)c2)cc1OC` [a13]: the 50% inhibitory concentration (IC50) in the test on HL-60 (Homo sapiens, HL-60, 48 h) was 134 ± 4.44 µM; with A549 (Homo sapiens, A549, 48 h), 37.6 ± 1.11 µM; in the test with WI-38 (Homo sapiens, WI-38, 48 h), 118 ± 3.53 µM; in the test on Hela (Homo sapiens, HeLa) it was 31.8 ± 1.62 µM; in the test with HepG2 (Homo sapiens, HepG2, 48 h) it was 50.3 ± 4.03 µM; in test [1], 23.3 to 54.4 µM.
